Laboratory results: publication PMC5937893, “Heat-stable sublingual oxytocin tablets as a potential needle-free approach for preventing postpartum hemorrhage in low-resource settings” (Drug Delivery and Translational Research, 2018)

What was measured:
Saliva stability study = assay type: in vitro ADME; details: pooled human saliva, 37 °C, 1 hour, HPLC, content at 1 hour divided by content at time zero, two aliquots per time point
Procedure: Since the oxytocin FDTs are intended to be administered under the tongue, we confirmed the stability of oxytocin in saliva prior to initiation of the pharmacokinetic study. The FDTs were incubated in pooled human saliva maintained at 37 °C for an hour along with unformulated oxytocin as a control. […]
the resting TEER measurement from the final TEER measurement. A reduction in the TEER indicates increased permeability of oral tissue after treatment.
Disintegration testing: Non-sink method
50, 60, 90 seconds) for complete disintegration. […]
aliquoted into four different vials. […]
immediately. […] The other two
HPLC mobile phase liquid and centrifuged immediately. The supernatants were loaded for HPLC analysis at the […]
1-hour divided by the content at time zero.
Test material Route of administration (IU/animal) Dose administered
Formulation 4 Sublingual 600 1 tablet
Formulation 4 Sublingual 400 1 tablet
Control Intramuscular 20 1 mL of 20 IU/mL
The FDTs were administered […]
once on days 1, 3, 8, 15, and 18. […]
aid in dissolution of the tablet. […]
right hind limb (biceps femoris) once on day 22.

[1] = in vivo
Procedure: (§1) Next, a crossover pharmacokinetic study with 24-h washout was conducted to determine oxytocin plasma levels after SL administration and to compare with the standard IM route in female mini pigs, chosen due to the similarity in oral cavity architecture with humans. Ten anesthetized female, non-pregnant Yucatan miniature swine, Sus scrofa 3 to 5 months old and weighing 15 to 20 kg were administered an oxytocin FDT under the tongue. For the control, mini pigs received 20 IU of oxytocin in a 1 mL IM injection into the right hind limb. […] Blood was collected from both groups at several time points up to 60 min after administration, via previously implanted vascular access ports, and plasma was obtained for analysis. A commercial enzyme-linked immunosorbent assay kit was used to detect oxytocin in the plasma.
(§2) The pharmacokinetic data were derived from ten non-pregnant female Yucatan miniature swine, Sus scrofa, aged 3
(§3) to 5 months, weighing 15 to 20 kg (Sinclair Bio-Resources, LLC, Auxvasse, MO, USA). Ten experimental pigs
(§4) received a sublingual (SL) tablet with 400 IU of oxytocin, and ten received SL tablets with 600 IU oxytocin. Ten
(§5) control pigs received 20 IU of oxytocin in a 1 mL intramuscular (IM) injection.
(§6) Animals were anesthetized with dexmedetomidine (0.04 mg/kg) mixed with midazolam (0.2 mg/kg), and anesthesia […]

[2] = set-up: method as in earlier work; details: women, buccal route, levels greater than 1000 IU, induction of labor; ref [10]; cited from earlier work
in vivo = details: female, Yucatan miniature swine, pig, im, 20 IU
Procedure: as §1, §2, §3, §4, §5, §6

For CC[C@H](C)[C@@H]1NC(=O)[C@H](Cc2ccc(O)cc2)NC(=O)[C@@H](N)CSSC[C@@H](C(=O)N2CCC[C@H]2C(=O)N[C@@H](CC(C)C)C(=O)NCC(N)=O)NC(=O)[C@H](CC(N)=O)NC(=O)[C@H](CCC(N)=O)NC1=O [oxytocin], the “Proteolytic degradation of oxytocin in saliva” value (Saliva stability study) is given as “none to minimal proteolytic degradation”, the “Plasma levels of oxytocin in unanesthetized versus anesthetized pigs” value [1] is given as “significantly higher” and the Adverse events [2] is given as “without any adverse events”. The Cmax (in vivo) was 0.612 ng/mL.
